According to the supplement of paper PMC10307832:

Legend:
Assay in all cases: relative viability (nuclei count vs DMSO), 5 days (fraction); higher = more cells survive
[1] = compound: CN1CCN(CC1)C2=CC(=C(C=C2)NC3=NC=C4C(=N3)N(C5=CC=CC=C5C(=O)N4C)C)OC [XMD8-85] + Cc1nc(NC(=O)N2CCC[C@H]2C(N)=O)sc1-c1ccnc(C(C)(C)C(F)(F)F)c1 [Alpelisib] (partner 2 µM)
In short: (§1)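 Lung cancer cell lines, seeded in 1536-well plates, were treated the following day by pin tool with a single drug or with five library-drug doses (not always all listed) in √10 steps on top of a fixed anchor-drug dose. Cells were fixed and nuclei stained in one step after 5 days, and nuclei were counted. Relative viability is the nuclei count for treated wells divided by that for vehicle wells, reported as medians of duplicate plates.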

[2] = compound: O=C(O)C(Cc1ccccc1[N+](=O)[O-])=NNc1nc(-c2ccc(Cl)c(Cl)c2)cs1 (mixture of isomers) [4EGI-1] + COc1cc2c(Oc3ccc(NC(=O)C4(C(=O)Nc5ccc(F)cc5)CC4)cc3F)ccnc2cc1OCCCN1CCOCC1 [Foretinib] (partner 0.25 µM)
In short: as §1

[3] = compound: CN1CCN(CC1)C2=CC(=C(C=C2)NC3=NC=C4C(=N3)N(C5=CC=CC=C5C(=O)N4C)C)OC [XMD8-85] + Cc1nc(Nc2ncc(C(=O)Nc3c(C)cccc3Cl)s2)cc(N2CCN(CCO)CC2)n1 [Dasatinib] (partner 0.075 µM)
In short: as §1

[4] = compound: O=C(O)C(Cc1ccccc1[N+](=O)[O-])=NNc1nc(-c2ccc(Cl)c(Cl)c2)cs1 (mixture of isomers) [4EGI-1] + N=C(N)NC(=N)NCCc1ccccc1 [Phenformin] (partner 250 µM)
In short: as §1

Cell Line | relative viability ([1]; first compound 0.08 µM) | relative viability ([1]; first compound 0.253 µM) | relative viability ([1]; first compound 0.8 µM) | relative viability ([1]; first compound 2.53 µM) | relative viability ([1]; first compound 8 µM) | relative viability ([2]; first compound 0.5 µM) | relative viability ([2]; first compound 1.581 µM) | relative viability ([2]; first compound 5 µM) | relative viability ([2]; first compound 15.81 µM) | relative viability ([2]; first compound 50 µM) | relative viability ([3]; first compound 0.08 µM) | relative viability ([3]; first compound 0.253 µM) | relative viability ([3]; first compound 0.8 µM) | relative viability ([3]; first compound 2.53 µM) | relative viability ([3]; first compound 8 µM) | relative viability ([4]; first compound 0.5 µM) | relative viability ([4]; first compound 1.581 µM) | relative viability ([4]; first compound 5 µM) | relative viability ([4]; first compound 15.81 µM) | relative viability ([4]; first compound 50 µM)
NCI-H1651 | 0.948 | 0.951 | 1.04 | 0.954 | 0.548 | 0.893 | 0.608 | 0.818 | 0.729 | 0.784 | 0.46 | 0.334 | 0.511 | 0.387 | 0.307 | 0.345 | 0.295 | 0.35 | 0.267 | 0.231
NCI-H2228 | – | 0.724 | 0.78 | 0.891 | 0.488 | 0.906 | 0.878 | 0.938 | 0.882 | 0.166 | 0.451 | 0.514 | 0.516 | 0.398 | 0.231 | 0.314 | 0.313 | 0.379 | 0.298 | 0.141
NCI-H460 | 0.447 | 0.442 | 0.688 | 0.401 | 0.147 | 1.02 | – | 0.997 | 0.686 | 0.228 | 0.423 | 0.443 | 0.554 | 0.475 | 0.178 | 0.549 | – | 0.593 | 0.243 | 0.0399
NCI-H2347 | 1.03 | 1.06 | 1.03 | 1 | 0.801 | 0.989 | 0.835 | 1.11 | 0.806 | 0.933 | 0.304 | 0.332 | 0.289 | 0.313 | 0.489 | 0.614 | – | 0.379 | 0.363 | 0.344
EMC-BAC-2 | 0.74 | 0.739 | 0.752 | 0.733 | 0.72 | 1.2 | 0.907 | 1.04 | 0.936 | 0.984 | 0.309 | 0.341 | 0.337 | 0.347 | 0.39 | 0.664 | 0.524 | 0.612 | 0.608 | 0.385
NCI-H1437 | 0.914 | 0.992 | 1.07 | 0.753 | 0.515 | 1.25 | 1.12 | 1.24 | 1.04 | 0.521 | 0.372 | 0.364 | 0.398 | 0.394 | 0.282 | 0.272 | 0.298 | 0.305 | 0.262 | 0.214
NCI-H650 | 1.09 | 0.928 | 1.17 | 0.979 | 0.592 | 1.13 | – | 1 | 0.958 | 0.897 | 0.446 | 0.51 | 0.437 | 0.418 | 0.304 | 0.455 | – | 0.451 | 0.47 | 0.31
NCI-H2009 | 1.17 | 1.03 | 1.14 | 1.03 | 0.586 | 1.28 | 1.29 | 1.27 | 1.23 | 0.981 | 0.285 | 0.29 | 0.288 | 0.209 | 0.167 | 0.55 | 0.494 | 0.528 | 0.366 | 0.18
NCI-H1944 | 0.815 | 0.791 | 0.847 | 0.977 | 0.746 | 0.894 | – | 0.974 | 0.782 | 0.655 | 0.203 | 0.228 | 0.204 | 0.223 | 0.203 | 0.206 | – | 0.207 | 0.185 | 0.191
NCI-H1734 | 0.652 | 0.678 | 0.745 | 0.658 | 0.576 | 1.02 | 0.803 | 0.971 | 0.827 | 0.472 | 0.463 | 0.491 | 0.453 | 0.574 | 0.499 | 0.477 | 0.341 | 0.43 | 0.352 | 0.256
SK-LU-1 | 0.924 | 1.07 | 1.08 | 1.01 | 0.855 | 0.956 | 0.829 | 0.841 | 0.746 | 0.284 | 0.135 | 0.183 | 0.208 | 0.172 | 0.179 | 0.653 | 0.546 | 0.681 | 0.632 | 0.264
NCI-H1915 | 1.08 | 1.09 | 1.07 | 1.05 | 0.962 | 1.13 | 0.858 | 1.08 | 1.07 | 0.928 | 0.328 | 0.339 | 0.348 | 0.326 | 0.32 | 0.367 | 0.35 | 0.374 | 0.343 | 0.233
SW 1573 | 0.917 | 0.596 | 0.745 | 0.615 | 0.663 | 1.13 | 0.954 | 1.13 | 0.878 | 0.52 | 0.466 | 0.364 | 0.393 | 0.499 | 0.343 | 0.457 | 0.388 | 0.403 | 0.276 | 0.114
NCI-H661 | – | 0.596 | 0.551 | 0.819 | 0.552 | 0.999 | 0.94 | 0.994 | 0.714 | 0.313 | 0.81 | 0.888 | 0.856 | 0.834 | 0.455 | 0.274 | 0.267 | 0.297 | 0.274 | 0.243
CAL-12T | 1.28 | 1.3 | 1.11 | 0.842 | 0.658 | 1.11 | 0.857 | 1.08 | 1.07 | 0.589 | 0.374 | 0.363 | 0.431 | 0.447 | 0.225 | 0.578 | 0.465 | 0.609 | 0.527 | 0.179
A-427 | 1.09 | 1.13 | 1.1 | 1.11 | 1 | 1.16 | 0.944 | 0.983 | 0.867 | 0.646 | 0.734 | 0.717 | 0.749 | 0.797 | 0.618 | 0.331 | 0.316 | 0.326 | 0.274 | 0.156
LCLC-97TM1 | 0.294 | 0.238 | 0.293 | 0.263 | 0.36 | 0.926 | 0.725 | 0.941 | 0.936 | 0.127 | – | 0.813 | 0.856 | 1.01 | 0.87 | 0.456 | 0.343 | 0.437 | 0.404 | 0.375
LK-2 | 1.16 | 1.04 | 1.12 | 1.26 | 0.694 | 1.23 | – | 1.36 | 1.42 | 0.929 | – | 0.305 | 0.262 | 0.261 | 0.222 | 0.464 | – | 0.639 | 0.437 | 0.0912
SK-MES-1 | 0.769 | 0.654 | 1.03 | 1.02 | – | 1.04 | 0.955 | 1.03 | 0.521 | 0.824 | 0.296 | 0.366 | 0.44 | – | 0.255 | 0.687 | 0.614 | 0.725 | 0.618 | 0.381
LU99A | 0.383 | 0.531 | 0.544 | 0.61 | 0.431 | 0.817 | 0.605 | 0.856 | 0.616 | 0.551 | 0.477 | 0.675 | 0.61 | 0.688 | 0.388 | 1.03 | 0.595 | 0.924 | 0.885 | 0.391
NCI-H1993 | 0.707 | – | 0.78 | 0.561 | 0.656 | 0.812 | 0.7 | 0.708 | 0.684 | 0.614 | 0.522 | 0.518 | 0.648 | 0.744 | 0.744 | 0.536 | 0.452 | 0.481 | 0.631 | 0.5
NCI-H441 | 0.837 | 1.03 | 0.693 | 0.714 | 0.698 | 0.909 | 0.929 | 1.01 | 0.882 | 0.447 | 0.42 | 0.576 | 0.728 | 0.715 | 0.516 | 1.04 | 0.76 | 0.919 | 0.785 | 0.183
NCI-H1666 | 1.01 | 0.829 | 0.9 | 1.05 | 0.74 | 1.01 | 0.924 | 1.04 | 0.671 | 0.417 | 0.822 | 0.827 | 0.808 | 0.773 | 0.701 | 0.537 | 0.554 | 0.563 | 0.51 | 0.398
NCI-H2023 | 0.488 | 0.623 | 0.66 | 0.664 | 0.334 | 0.88 | – | 0.772 | 0.45 | 0.149 | 0.426 | 0.521 | 0.586 | 0.619 | 0.314 | 0.503 | – | 0.425 | 0.281 | 0.117
NCI-H322M | 0.77 | – | 0.819 | 0.784 | 0.782 | 1.03 | – | 1.13 | 0.816 | 0.342 | 0.246 | 0.249 | 0.289 | 0.232 | 0.19 | 0.794 | – | 0.891 | 0.689 | 0.301
NCI-H838 | 0.983 | 1.03 | 1.09 | 1.01 | 0.446 | 1.03 | – | 1.13 | 1.04 | 0.369 | 0.397 | 0.277 | 0.281 | 0.28 | 0.191 | 0.605 | – | 0.623 | 0.487 | 0.153
